# Reference: ChEMBL document CHEMBL1155076, “Synthesis and pharmacological evaluation of novel gamma-aminobutyric acid type B (GABAB) receptor agonists as gastroesophageal reflux inhibitors” (J Med Chem, 2008)
# How the values were obtained:
# [1] = Displacement of [3H]GABA from GABABreceptor in rat brain synaptic membranes; assay type: cell membranes, Membrane
# [2] = tested on: CHO-K1; assay: Intrinsic activity at human recombinant GABAB receptor expressed in CHO-K1 cells assessed as inhibition of intracellular calcium release by FLIPR relative to GABA; assay type: cell-based
# [3] = Agonist activity at human recombinant GABABreceptor expressed in CHO-K1 cells assessed as inhibition of intracellular calcium release by FLIPR; assay type: functional, cell-based
# [4] = Bioavailability in dog; assay type: ADME, organism-based, Canis lupus familiaris; details: in vivo
# [5] = Bioavailability in rat; assay type: ADME, organism-based; details: in vivo
# [6] = organism: Canis familiaris; assay: Inhibition of transient lower esophageal sphincter relaxation in dog; assay type: functional; details: Canis lupus familiaris
# [7] = tested on: Mus musculus; assay: Toxicity in sc dosed mouse assessed as subcutaneous dose producing 2 degC decrease in body temperature; assay type: organism-based; details: in vivo
smiles,measurement,setting,value
NC[C@@H](O)C[PH](=O)O,Ki,[1],2100 nM
same,Intrinsic activity,[2],1
same,EC50,[3],1100 nM
NCC(CC(=O)O)c1ccc(Cl)cc1 (stereo not given),Intrinsic activity,[2],1
NC[C@H](O)C[PH](=O)O,Ki,[1],50 nM
same,Intrinsic activity,[2],1
same,EC50,[3],130 nM
same,bioavailability,[4],88%
same,bioavailability,[5],78%
same,ED50,[6],7 µmol/kg
same,Activity,[7],> 8000 µmol/kg
CP(=O)(O)CC(=O)CN,Ki,[1],200 nM
same,Intrinsic activity,[2],1
same,EC50,[3],270 nM
CP(=O)(O)CCCN,Intrinsic activity,[2],1
CP(=O)(O)C[C@H](F)CN,Ki,[1],4.3 nM
same,Intrinsic activity,[2],1
same,EC50,[3],14 nM
NC[C@H](F)C[PH](=O)O,Ki,[1],70 nM
same,Intrinsic activity,[2],1
same,EC50,[3],250 nM
CP(=O)(O)C[C@@H](F)CN,Ki,[1],480 nM
same,Intrinsic activity,[2],1
same,EC50,[3],1700 nM
CP(=O)(O)CC(F)CN (stereo not given),Ki,[1],14 nM
same,Intrinsic activity,[2],1
same,EC50,[3],23 nM
CP(=O)(O)C[C@H](O)CN,Ki,[1],840 nM
same,Intrinsic activity,[2],1
same,EC50,[3],600 nM
NCC(F)C[PH](=O)O (stereo not given),Ki,[1],10 nM
same,Intrinsic activity,[2],1
same,EC50,[3],15 nM
NC[C@@H](F)C[PH](=O)O [LESOGABERAN],Ki,[1],5.1 nM
same,Intrinsic activity,[2],1
same,EC50,[3],8.64 nM
NCCC[PH](=O)O,Ki,[1],15 nM
same,Intrinsic activity,[2],1
same,EC50,[3],19 nM
NCC(O)C[PH](=O)O (stereo not given),Ki,[1],94 nM
same,Intrinsic activity,[2],1
same,EC50,[3],220 nM
NCC(=O)C[PH](=O)O,Ki,[1],48 nM
same,Intrinsic activity,[2],1
same,EC50,[3],81 nM
CP(=O)(O)C[C@@H](O)CN,Ki,[1],180 nM
same,Intrinsic activity,[2],1
same,EC50,[3],150 nM
same,ED50,[6],0.17 µmol/kg
same,Activity,[7],5.4 µmol/kg
